Test results published in patent publication EP2717965B1, “USE OF EPSILON-POLY-L-LYSINE FOR INCREASING THE BIOAVAILABILITY OF ANTIMICROBIAL PEPTIDES IN THE HUMAN SKIN” (Beiersdorf AG, priority 2011, dated 2017).
Read-outs that look alike come from different tables or passages of the source.

Legend:
[1] = system: hBD3; conditions: 50 µl of 1% solution in Citratpuffer pH 6 on inner forearm, 4h, rinse with 0,5 ml buffer; control Citratpuffer
Description: 50 µl einer 1%igen wässrigen gepufferten Lösung (Citratpuffer pH 6)von ePL wurden auf die Innenseite des Unterarms von Probanden gegeben. Als Kontrolle diente die Applikation von Citratpuffer ohne ePL. Nach 4h Inkubation wurden die Hautareale mit 0,5 ml Pufferlösung gespült und die Konzentration hBD3 im Eluat mit Hilfe eines ELISAs quantifiziert.
Als Kontrolle diente Citratpuffer, in dem die Wirkstoffe gelöst wurden. (n=8)

[2] = system: hBD3; assay: hBD3 secretion of cultured human epidermal keratinocytes, ELISA of cell culture supernatant; assay type: cell-based, humane epidermale Keratinozyten; conditions: 24 Stunden incubation
Description: In vitro kultivierte humane epidermale Keratinozyten wurden in Zellkultur Medium mit ε-Poly-L-Lysin in einem Konzentrationsbereich von 0,001-0,1% für 24 Stunden inkubiert. Anschließend wurde die Konzentration an hBD3 im Zellkulturüberstand mittels ELISA quantifiziert.
Abb. 1: Dosisabhängige hBD3 Expression von humanen epidermalen Keratinozyten, die über einen Zeitraum von 24 Stunden mit ePL kultiviert wurden.
Abbildung 1 zeigt die dosisabhängige hBD3 Freisetzung von mit ePL inkubierten Keratinozyten. Kontrollzellen zeigten nur eine geringfüge basale hBD3 Menge.

[3] = system: hBD3; assay: hBD3 in forearm skin rinses of volunteers after topical application, ELISA of eluate; assay type: in vivo, Probanden; conditions: 50 µl of 1% solution in Citratpuffer pH 6 on inner forearm, 4h, rinse with 0,5 ml buffer; control Citratpuffer
Description: Abb. […] Als Kontrolle wurde Citratpuffer appliziert. (n=7)

In the case of `NCC(=O)O` [Glycin], the hBD3-Steigerung [1] is reported as “nur beim peptidisch verknüpften Lysin”.

With `NCCCC[C@H](N)C(=O)O` [Lysin, L-Lysin] the hBD3-Steigerung [1] was “nicht aber bei der freien Aminosäure eine hBD3-Steigerung”.

For “Poly[imino[(2S)-2-amino-1-oxo-1,6-hexandiyl]] [ePL]”, the “hBD3 Sekretion” value ([2]; 0,01% und 0,1% in cell culture medium, compared with 0,001%) was “steigerte nochmals die hBD3 Sekretion deutlich”, the “hBD3 Sekretion der Keratinozyten” value ([2]; 0,001% in cell culture medium, versus control cells) was “signifikante Erhöhung (p<0,001)” and the hBD3-Steigerung [3] was “gleichermaßen wirksam”.

In the case of alpha-Polylysin, the hBD3-Steigerung [3] is reported as “gleichermaßen wirksam”.
